No end group written: not given here.
Legend:
[1] = system: human pancreatic cancer cell lines; assay: S2-BH3 apoptosis in human pancreatic cancer cell lines; assay type: cell-based; settings: up to 10 μM
Method: (§1) Tumor Cells are seeded at a density of 0.2 to 0.5×10^6 cells per mL in 12-well plates and incubated at 37° C. for at least 24 hours (murine cancer cells) or 48 hours (Human cancer cells). After incubation, S2-fusion protein is added to the cell culture medium. The cells are then incubated for 18 hours (active caspase 3) or 24 hours (TUNEL) at 37° C. in humidified 5% CO2. Apoptosis is detected by FACS analysis after staining cells for active caspase-3 (Cell Signaling, Boston, Mass.) or with the APO-BRDU kit (Phenix Flow Systems, San Diego, Calif.). Briefly, cells are washed with PBS, treated with trypsin-EDTA to remove adhesion molecules, and washed again. After centrifugation at 1,200 rpm for 10 min, cells are fixed with 1% paraformaldehyde and washed with PBS. After centrifugation at 1,800 rpm for 10 min, cells are fixed with 90% methanol at −20° C. and washed with PBS. Each pellet is resuspended in 1:100 anti-active caspase-3 antibody (1 μg/ml caspase 3, PBS with 5% FBS) or Br-duTP with TdT, and incubated overnight at 4° C. […] Cell fluorescence signals is determined using a FACScan flow cytometer (BD Biosciences) and analyzed with CellQuest software (BD Biosciences) to measure the percentage of apoptotic cells. […]

[2] = system: murine pancreatic cancer cell lines; assay: S2-BH3 apoptosis in murine pancreatic cancer cell lines; assay type: cell-based; settings: up to 10 μM
Method: as §1

[3] = system: established murine pancreas cancers; assay: systemic (intraperitoneal) S2-BH3 in mice with established pancreas cancers; settings: seven intraperitoneal doses over 14 days
Method: The intradermal location is used to facilitate accurate tumor measurements. Tumor diameter is measured with calipers every two days in two dimensions and the data are recorded. Mice are euthanized when the tumors reach 2 cm or ulcerate. In the subcutaneous model, 100,000 Panc-02 cells are utilized.
In these experiments, we have completed the first in vivo administration of our novel therapeutic.

[4] = system: human pancreas cancer cells; assay: apoptosis screen of TAT-CTMP fusion peptides, human cells; assay type: cell-based
Method: as §1

[5] = system: murine pancreas cancer cells; assay: apoptosis screen of TAT-CTMP fusion peptides, murine cells; assay type: cell-based
Method: as §1

[6] = system: pancreas cancer cells; assay: TAT-CTMP with radiation, apoptosis; assay type: cell-based; settings: cotreatment with radiation
From the text: CTMP binds to the C-terminal regulatory domain of Akt, inhibiting phosphorylation of Ser^473 and activation of Akt, and thereby promotes apoptosis. CTMP is highly conserved between mouse and human (85% of the residues are identical or conservative replacements) and has two functional domains, a highly structured N-terminal domain and a C-terminal thioesterase domain. Within the N-terminal domain there are four peptides that have structural elements that meet the criteria described by Maira et al (Science 294: 374-380, 2001) as mediating the interaction with Akt. In these experiments, we synthesized TAT-fusion peptides of each of these four domains and screened them for their ability to induce apoptosis in pancreas cancer cells. […] In FIG. 4, the left panel (A), presents a helical wheel diagram (Schiffer, M. and Edmundson, A. B., Biophys. J. 7, 121-135, 1967) of the active domain of CTMP. […] Furthermore, cotreatment with TAT-CTMP4 and radiation results in increased apoptosis (FIG. 4, right panel).

[7] = system: AsPC-1; assay: Tat-CTMP with gemcitabine, % active caspase-3 by flow cytometry; assay type: cell-based, human; settings: in the presence of gemcitabine (30 nM); 24 hours
Method: In these experiments, a combination of gemcitabine, a commonly-used chemotherapeutic drug for pancreas cancer and Tat-CTMP were tested in our in vitro model. In this study, two human pancreas adenocarcinoma cell lines (Panc-1 and AsPC-1) were treated with TAT-CTMP and TAT-CTMP in the presence and absence of gemcitabine (30 nM). […] Cells were subsequently harvested and % active caspase-3 was assessed by flow cytometry. Each experimental group represents an n=3. […] This experiment was repeated twice with multiple murine and human lines with similar results. (B and C) Antitumor effects of CTMP4 are the result of inhibition of Akt3 and its downstream effectors. […] Samples were treated for 1 hour prior to preparation of cell lysates. Immunoblots were subsequently prepared and stained with (B) anti-total AKT and phospho-AKT ([…]) and (C) anti-total GSK-3β and phospho GSK-3β.

[8] = system: Akt; assay: Western blot of phospho-Akt (Ser-473) in cell lysates; assay type: cell-based, human; settings: Panc-1; one hour after treatment; wortmannin 1 μM, TAT-CTMP 10 μM
Method: In addition we looked at down stream effector GSK-3β using antibodies directed at GSK-3β and phospho GSK-3β.
Cells were subsequently harvested and % active caspase-3 was assessed by flow cytometry. Each experimental group represents an n=3. […] This experiment was repeated twice with multiple murine and human lines with similar results. (B and C) Antitumor effects of CTMP4 are the result of inhibition of Akt3 and its downstream effectors. […] Samples were treated for 1 hour prior to preparation of cell lysates. Immunoblots were subsequently prepared and stained with (B) anti-total AKT and phospho-AKT (Ser^473) and (C) anti-total GSK-3β and phospho GSK-3β.

## COc1ccc(C)cc1NC(=O)OC1C[C@H]2CCC[C@@H](C1)N2CCCCCCN (some centres unmarked) [SV119]
[1]
  apoptosis: low, concentration-dependent level of apoptosis
[2]
  apoptosis: low, concentration-dependent level of apoptosis

## S2-BH3-in: control peptide: SW141 sigma-2 amino acid coupled to mutated inactive BH3 sequence EIWIAQEARRIGAEFNAYYAR (SEQ ID NO: 3) (also: SW141 sigma-2 ligand conjugated; listed as Homo sapiens)
[1]
  apoptosis: no appreciable apoptosis
[2]
  apoptosis: no appreciable apoptosis
[3]; 400 μg
  tumor growth rate: not
[3]; n = 12 mice per group
  Median Survival: 35 days

## TAT-CTMP: TAT-fusion peptide of the active N-terminal domain peptide CTMP4 of CTMP (YGRKKRRQRRRLDPKLMKEEQMSQAQLFTRSFDDGL)
[4]
  apoptosis: induced appreciable apoptosis
[5]
  apoptosis: induced appreciable apoptosis
[6]
  radiation-induced apoptosis: sensitizes pancreas cancer cells to radiation-induced apoptosis in a dose dependent fashion
[7]
  apoptosis (% active caspase-3): additive increase in apoptosis
[8]
  active phospho-AKT (Ser-473): decreased active phospho-AKT

From patent publication US8143222B2, “Modular platform for targeted therapeutic delivery” (Washington University, priority 2007, dated 2012)
